From ChEMBL document CHEMBL1148424, “Synthesis of novel melanocortin 4 receptor agonists and antagonists containing a succinamide core” (Bioorg Med Chem Lett, 2004)

What follows are molecules tested against T1, Melanocortin receptor 4 (Homo sapiens, UniProt P32245) (assay: Intracellular level of cAMP in cells expressing the melanocortin 4 receptor).
Type: functional

T1 sequence (P32245 whole entry): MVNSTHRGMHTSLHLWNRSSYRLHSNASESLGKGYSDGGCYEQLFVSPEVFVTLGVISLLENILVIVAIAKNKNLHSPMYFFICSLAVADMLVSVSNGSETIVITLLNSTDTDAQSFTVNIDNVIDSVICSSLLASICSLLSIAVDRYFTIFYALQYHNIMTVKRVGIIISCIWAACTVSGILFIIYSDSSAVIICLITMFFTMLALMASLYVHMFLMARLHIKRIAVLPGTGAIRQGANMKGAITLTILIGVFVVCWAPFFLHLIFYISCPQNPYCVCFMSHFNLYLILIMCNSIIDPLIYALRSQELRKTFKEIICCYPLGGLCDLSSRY

| EC50 [nM] | SMILES |
| --- | --- |
| > 10000 | CCCN1CCN(C(=O)C[C@H](Cc2ccc(Cl)cc2)C(=O)N2CCN(c3ccccc3N(CC3CC3)S(C)(=O)=O)CC2)CC1 |
| > 10000 | CC(=O)N1CCN(C(=O)C[C@H](Cc2ccc(Cl)cc2)C(=O)N2CCN(c3ccccc3N(CC3CC3)S(C)(=O)=O)CC2)CC1 |
| > 10000 | CCOC(=O)N1CCN(C(=O)C[C@H](Cc2ccc(Cl)cc2)C(=O)N2CCN(c3ccccc3N(CC3CC3)S(C)(=O)=O)CC2)CC1 |
| > 10000 | CC(C)(C)OC(=O)N1CCN(C(=O)C[C@H](Cc2ccc(Cl)cc2)C(=O)N2CCN(c3ccccc3N(CC3CC3)S(C)(=O)=O)CC2)CC1 |
| 74 | CC(C)(C)CC(=O)N1CCN(C(=O)C[C@H](Cc2ccc(Cl)cc2)C(=O)N2CCN(c3ccccc3N(CC3CC3)S(C)(=O)=O)CC2)CC1 |
| > 10000 | CCN1CCN(C(=O)C[C@H](Cc2ccc(Cl)cc2)C(=O)N2CCN(c3ccccc3N(CC3CC3)S(C)(=O)=O)CC2)CC1 |

Second part, the molecule before the results:

| SMILES | EC50 [nM] |
| --- | --- |
| CS(=O)(=O)N(CC1CC1)c1ccccc1N1CCN(C(=O)[C@H](CC(=O)N2CCNCC2)Cc2ccc(Cl)cc2)CC1 | 2000 |
| CCN(C(C)=O)C(C)c1ccccc1N1CCN(C(=O)[C@H](CC(=O)N2CCSC2)Cc2ccc(Cl)cc2)CC1 (some centres undefined) | 530 |
| CS(=O)(=O)N(CC1CC1)c1ccccc1N1CCN(C(=O)[C@H](CC(=O)N2CCN(C(=O)c3ccccc3)CC2)Cc2ccc(Cl)cc2)CC1 | 83 |
| CS(=O)(=O)N1CC2(CCN(C(=O)[C@@H](Cc3ccc(Cl)cc3)NC(=O)[C@H]3Cc4ccccc4CN3)CC2)c2ccccc21 | 5.2 |
| CC(C)CCN1CCN(C(=O)C[C@H](Cc2ccc(Cl)cc2)C(=O)N2CCN(c3ccccc3N(CC3CC3)S(C)(=O)=O)CC2)CC1 | > 10000 |
| CCN(C(C)=O)C(C)c1ccccc1N1CCN(C(=O)[C@H](CC(=O)N2CCC2)Cc2ccc(Cl)cc2)CC1 (some centres undefined) | 340 |
| CCN(C(C)=O)C(C)c1ccccc1N1CCN(C(=O)[C@H](CC(=O)N2CCN(C(=O)OC(C)(C)C)CC2)Cc2ccc(Cl)cc2)CC1 (some centres undefined) | > 10000 |
| CCN(C(C)=O)C(C)c1ccccc1N1CCN(C(=O)[C@H](CC(=O)NCc2ccccn2)Cc2ccc(Cl)cc2)CC1 (some centres undefined) | 37 |
| CS(=O)(=O)N(CC1CC1)c1ccccc1N1CCN(C(=O)[C@H](CC(=O)N2CCN(CC3CC3)CC2)Cc2ccc(Cl)cc2)CC1 | > 10000 |
| CCN(C(C)=O)C(C)c1ccccc1N1CCN(C(=O)[C@H](CC(=O)NC2CCC2)Cc2ccc(Cl)cc2)CC1 (some centres undefined) | 15 |
| CCN(C(C)=O)C(C)c1ccccc1N1CCN(C(=O)[C@H](CC(=O)NCc2ccccc2F)Cc2ccc(Cl)cc2)CC1 (some centres undefined) | 89 |
| CS(=O)(=O)N(CC1CC1)c1ccccc1N1CCN(C(=O)[C@@H](Cc2ccc(Cl)cc2)NC(=O)C2CCNCC2)CC1 | < 0.1 |

The molecules below were run against Melanocyte-stimulating hormone receptor (Mus musculus, UniProt Q01727) (assay: Inhibitory activity against mouse melanocortin 1 receptor).
Chain of Melanocyte-stimulating hormone receptor (Q01727 whole entry): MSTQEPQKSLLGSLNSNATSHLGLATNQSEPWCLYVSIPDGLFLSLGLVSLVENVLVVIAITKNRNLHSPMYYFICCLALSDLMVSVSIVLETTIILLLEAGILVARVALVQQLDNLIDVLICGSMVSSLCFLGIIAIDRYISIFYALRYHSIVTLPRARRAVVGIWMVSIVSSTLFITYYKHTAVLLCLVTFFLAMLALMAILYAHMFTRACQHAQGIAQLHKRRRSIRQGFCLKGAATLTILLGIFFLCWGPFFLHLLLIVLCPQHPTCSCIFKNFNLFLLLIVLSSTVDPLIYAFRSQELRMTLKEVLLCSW

| IC50 [nM] | SMILES |
| --- | --- |
| > 10000 | CCCN1CCN(C(=O)C[C@H](Cc2ccc(Cl)cc2)C(=O)N2CCN(c3ccccc3N(CC3CC3)S(C)(=O)=O)CC2)CC1 |
| > 10000 | CC(=O)N1CCN(C(=O)C[C@H](Cc2ccc(Cl)cc2)C(=O)N2CCN(c3ccccc3N(CC3CC3)S(C)(=O)=O)CC2)CC1 |
| > 10000 | CCOC(=O)N1CCN(C(=O)C[C@H](Cc2ccc(Cl)cc2)C(=O)N2CCN(c3ccccc3N(CC3CC3)S(C)(=O)=O)CC2)CC1 |
| > 10000 | CC(C)(C)OC(=O)N1CCN(C(=O)C[C@H](Cc2ccc(Cl)cc2)C(=O)N2CCN(c3ccccc3N(CC3CC3)S(C)(=O)=O)CC2)CC1 |
| > 1800 | CC(C)(C)CC(=O)N1CCN(C(=O)C[C@H](Cc2ccc(Cl)cc2)C(=O)N2CCN(c3ccccc3N(CC3CC3)S(C)(=O)=O)CC2)CC1 |

Further lines, the molecule ahead of its results:

| SMILES | IC50 [nM] |
| --- | --- |
| CS(=O)(=O)N(CC1CC1)c1ccccc1N1CCN(C(=O)[C@H](CC(=O)N2CCNCC2)Cc2ccc(Cl)cc2)CC1 | > 8000 |
| CS(=O)(=O)N1CC2(CCN(C(=O)[C@@H](Cc3ccc(Cl)cc3)NC(=O)[C@H]3Cc4ccccc4CN3)CC2)c2ccccc21 | 153 |
| CCN(C(C)=O)C(C)c1ccccc1N1CCN(C(=O)[C@H](CC(=O)N2CCC2)Cc2ccc(Cl)cc2)CC1 (some centres undefined) | > 1400 |
| CCN(C(C)=O)C(C)c1ccccc1N1CCN(C(=O)[C@H](CC(=O)NC2CCC2)Cc2ccc(Cl)cc2)CC1 (some centres undefined) | > 600 |
| CCN(C(C)=O)C(C)c1ccccc1N1CCN(C(=O)[C@H](CC(=O)NCc2ccccc2F)Cc2ccc(Cl)cc2)CC1 (some centres undefined) | > 1600 |

Each molecule was assayed against Melanocortin receptor 3 (Homo sapiens, UniProt P41968) (assay: Inhibitory activity against human melanocortin 3 receptor).
Chain of Melanocortin receptor 3 (P41968 whole entry): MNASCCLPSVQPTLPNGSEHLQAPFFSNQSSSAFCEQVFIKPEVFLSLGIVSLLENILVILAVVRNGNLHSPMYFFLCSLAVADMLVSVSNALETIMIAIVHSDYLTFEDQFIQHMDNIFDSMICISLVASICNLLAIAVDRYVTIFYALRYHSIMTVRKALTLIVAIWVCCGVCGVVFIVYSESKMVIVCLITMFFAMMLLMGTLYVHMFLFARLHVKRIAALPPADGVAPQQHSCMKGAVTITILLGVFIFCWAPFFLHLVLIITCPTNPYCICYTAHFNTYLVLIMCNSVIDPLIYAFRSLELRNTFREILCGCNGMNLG

| IC50 [nM] | SMILES |
| --- | --- |
| > 10000 | CCCN1CCN(C(=O)C[C@H](Cc2ccc(Cl)cc2)C(=O)N2CCN(c3ccccc3N(CC3CC3)S(C)(=O)=O)CC2)CC1 |
| > 10000 | CC(=O)N1CCN(C(=O)C[C@H](Cc2ccc(Cl)cc2)C(=O)N2CCN(c3ccccc3N(CC3CC3)S(C)(=O)=O)CC2)CC1 |
| > 10000 | CCOC(=O)N1CCN(C(=O)C[C@H](Cc2ccc(Cl)cc2)C(=O)N2CCN(c3ccccc3N(CC3CC3)S(C)(=O)=O)CC2)CC1 |
| > 3500 | CC(C)(C)OC(=O)N1CCN(C(=O)C[C@H](Cc2ccc(Cl)cc2)C(=O)N2CCN(c3ccccc3N(CC3CC3)S(C)(=O)=O)CC2)CC1 |
| > 10000 | CC(C)(C)CC(=O)N1CCN(C(=O)C[C@H](Cc2ccc(Cl)cc2)C(=O)N2CCN(c3ccccc3N(CC3CC3)S(C)(=O)=O)CC2)CC1 |

The next lines start with the molecule.

| SMILES | IC50 [nM] |
| --- | --- |
| CS(=O)(=O)N(CC1CC1)c1ccccc1N1CCN(C(=O)[C@H](CC(=O)N2CCNCC2)Cc2ccc(Cl)cc2)CC1 | > 8000 |
| CS(=O)(=O)N1CC2(CCN(C(=O)[C@@H](Cc3ccc(Cl)cc3)NC(=O)[C@H]3Cc4ccccc4CN3)CC2)c2ccccc21 | 2900 |
| CCN(C(C)=O)C(C)c1ccccc1N1CCN(C(=O)[C@H](CC(=O)N2CCC2)Cc2ccc(Cl)cc2)CC1 (some centres undefined) | > 10000 |
| CCN(C(C)=O)C(C)c1ccccc1N1CCN(C(=O)[C@H](CC(=O)NC2CCC2)Cc2ccc(Cl)cc2)CC1 (some centres undefined) | > 10000 |
| CCN(C(C)=O)C(C)c1ccccc1N1CCN(C(=O)[C@H](CC(=O)NCc2ccccc2F)Cc2ccc(Cl)cc2)CC1 (some centres undefined) | > 10000 |

The molecules below were run against T1, Melanocortin receptor 4 (assay: Percentage of maximal response with respect to alpha-MSH in cells expressing the melanocortin 4 receptor).
Type: functional

| Activation [%] | SMILES |
| --- | --- |
| 0 | CCCN1CCN(C(=O)C[C@H](Cc2ccc(Cl)cc2)C(=O)N2CCN(c3ccccc3N(CC3CC3)S(C)(=O)=O)CC2)CC1 |
| 0 | CC(=O)N1CCN(C(=O)C[C@H](Cc2ccc(Cl)cc2)C(=O)N2CCN(c3ccccc3N(CC3CC3)S(C)(=O)=O)CC2)CC1 |
| 0 | CCOC(=O)N1CCN(C(=O)C[C@H](Cc2ccc(Cl)cc2)C(=O)N2CCN(c3ccccc3N(CC3CC3)S(C)(=O)=O)CC2)CC1 |
| 0 | CC(C)(C)OC(=O)N1CCN(C(=O)C[C@H](Cc2ccc(Cl)cc2)C(=O)N2CCN(c3ccccc3N(CC3CC3)S(C)(=O)=O)CC2)CC1 |
| 45 | CC(C)(C)CC(=O)N1CCN(C(=O)C[C@H](Cc2ccc(Cl)cc2)C(=O)N2CCN(c3ccccc3N(CC3CC3)S(C)(=O)=O)CC2)CC1 |
| 0 | CCN1CCN(C(=O)C[C@H](Cc2ccc(Cl)cc2)C(=O)N2CCN(c3ccccc3N(CC3CC3)S(C)(=O)=O)CC2)CC1 |

Further lines, the molecule ahead of its results:

| SMILES | Activation [%] |
| --- | --- |
| CS(=O)(=O)N(CC1CC1)c1ccccc1N1CCN(C(=O)[C@H](CC(=O)N2CCNCC2)Cc2ccc(Cl)cc2)CC1 | 70 |
| CCN(C(C)=O)C(C)c1ccccc1N1CCN(C(=O)[C@H](CC(=O)N2CCSC2)Cc2ccc(Cl)cc2)CC1 (some centres undefined) | 80 |
| CS(=O)(=O)N(CC1CC1)c1ccccc1N1CCN(C(=O)[C@H](CC(=O)N2CCN(C(=O)c3ccccc3)CC2)Cc2ccc(Cl)cc2)CC1 | 55 |
| CS(=O)(=O)N1CC2(CCN(C(=O)[C@@H](Cc3ccc(Cl)cc3)NC(=O)[C@H]3Cc4ccccc4CN3)CC2)c2ccccc21 | 100 |
| CC(C)CCN1CCN(C(=O)C[C@H](Cc2ccc(Cl)cc2)C(=O)N2CCN(c3ccccc3N(CC3CC3)S(C)(=O)=O)CC2)CC1 | 0 |
| CCN(C(C)=O)C(C)c1ccccc1N1CCN(C(=O)[C@H](CC(=O)N2CCC2)Cc2ccc(Cl)cc2)CC1 (some centres undefined) | 90 |
| CCN(C(C)=O)C(C)c1ccccc1N1CCN(C(=O)[C@H](CC(=O)N2CCN(C(=O)OC(C)(C)C)CC2)Cc2ccc(Cl)cc2)CC1 (some centres undefined) | 0 |
| CCN(C(C)=O)C(C)c1ccccc1N1CCN(C(=O)[C@H](CC(=O)NCc2ccccn2)Cc2ccc(Cl)cc2)CC1 (some centres undefined) | 95 |
| CS(=O)(=O)N(CC1CC1)c1ccccc1N1CCN(C(=O)[C@H](CC(=O)N2CCN(CC3CC3)CC2)Cc2ccc(Cl)cc2)CC1 | 0 |
| CCN(C(C)=O)C(C)c1ccccc1N1CCN(C(=O)[C@H](CC(=O)NC2CCC2)Cc2ccc(Cl)cc2)CC1 (some centres undefined) | 100 |
| CCN(C(C)=O)C(C)c1ccccc1N1CCN(C(=O)[C@H](CC(=O)NCc2ccccc2F)Cc2ccc(Cl)cc2)CC1 (some centres undefined) | 100 |
| CS(=O)(=O)N(CC1CC1)c1ccccc1N1CCN(C(=O)[C@@H](Cc2ccc(Cl)cc2)NC(=O)C2CCNCC2)CC1 | > 90 |

These molecules were tested against T1, Melanocortin receptor 4 (assay: Inhibitory activity against [125I]NDP-alpha-MSH binding to the human melanocortin 4 receptor).

| IC50 [nM] | SMILES |
| --- | --- |
| 8.9 | CCCN1CCN(C(=O)C[C@H](Cc2ccc(Cl)cc2)C(=O)N2CCN(c3ccccc3N(CC3CC3)S(C)(=O)=O)CC2)CC1 |
| 11 | CC(=O)N1CCN(C(=O)C[C@H](Cc2ccc(Cl)cc2)C(=O)N2CCN(c3ccccc3N(CC3CC3)S(C)(=O)=O)CC2)CC1 |
| 1.4 | CCOC(=O)N1CCN(C(=O)C[C@H](Cc2ccc(Cl)cc2)C(=O)N2CCN(c3ccccc3N(CC3CC3)S(C)(=O)=O)CC2)CC1 |
| 3.3 | CC(C)(C)OC(=O)N1CCN(C(=O)C[C@H](Cc2ccc(Cl)cc2)C(=O)N2CCN(c3ccccc3N(CC3CC3)S(C)(=O)=O)CC2)CC1 |
| < 0.1 | CC(C)(C)CC(=O)N1CCN(C(=O)C[C@H](Cc2ccc(Cl)cc2)C(=O)N2CCN(c3ccccc3N(CC3CC3)S(C)(=O)=O)CC2)CC1 |
| 9.5 | CCN1CCN(C(=O)C[C@H](Cc2ccc(Cl)cc2)C(=O)N2CCN(c3ccccc3N(CC3CC3)S(C)(=O)=O)CC2)CC1 |

More lines, now with the values behind:

| SMILES | IC50 [nM] |
| --- | --- |
| CS(=O)(=O)N(CC1CC1)c1ccccc1N1CCN(C(=O)[C@H](CC(=O)N2CCNCC2)Cc2ccc(Cl)cc2)CC1 | 220 |
| CCN(C(C)=O)C(C)c1ccccc1N1CCN(C(=O)[C@H](CC(=O)N2CCSC2)Cc2ccc(Cl)cc2)CC1 (some centres undefined) | 9.4 |
| CS(=O)(=O)N(CC1CC1)c1ccccc1N1CCN(C(=O)[C@H](CC(=O)N2CCN(C(=O)c3ccccc3)CC2)Cc2ccc(Cl)cc2)CC1 | 4.4 |
| CS(=O)(=O)N1CC2(CCN(C(=O)[C@@H](Cc3ccc(Cl)cc3)NC(=O)[C@H]3Cc4ccccc4CN3)CC2)c2ccccc21 | 66 |
| CC(C)CCN1CCN(C(=O)C[C@H](Cc2ccc(Cl)cc2)C(=O)N2CCN(c3ccccc3N(CC3CC3)S(C)(=O)=O)CC2)CC1 | 4.8 |
| CCN(C(C)=O)C(C)c1ccccc1N1CCN(C(=O)[C@H](CC(=O)N2CCC2)Cc2ccc(Cl)cc2)CC1 (some centres undefined) | 19 |
| CCN(C(C)=O)C(C)c1ccccc1N1CCN(C(=O)[C@H](CC(=O)N2CCN(C(=O)OC(C)(C)C)CC2)Cc2ccc(Cl)cc2)CC1 (some centres undefined) | 2 |
| CCN(C(C)=O)C(C)c1ccccc1N1CCN(C(=O)[C@H](CC(=O)NCc2ccccn2)Cc2ccc(Cl)cc2)CC1 (some centres undefined) | 32 |
| CS(=O)(=O)N(CC1CC1)c1ccccc1N1CCN(C(=O)[C@H](CC(=O)N2CCN(CC3CC3)CC2)Cc2ccc(Cl)cc2)CC1 | 3 |
| CCN(C(C)=O)C(C)c1ccccc1N1CCN(C(=O)[C@H](CC(=O)NC2CCC2)Cc2ccc(Cl)cc2)CC1 (some centres undefined) | 5.8 |
| CCN(C(C)=O)C(C)c1ccccc1N1CCN(C(=O)[C@H](CC(=O)NCc2ccccc2F)Cc2ccc(Cl)cc2)CC1 (some centres undefined) | 13 |
| CS(=O)(=O)N(CC1CC1)c1ccccc1N1CCN(C(=O)[C@@H](Cc2ccc(Cl)cc2)NC(=O)C2CCNCC2)CC1 | 130 |
